From the supplement of paper PMC10307832

How the values were obtained:
Assay in all cases: relative viability (nuclei count vs DMSO), 5 days (fraction); higher = more cells survive
[1] = compound: CC1=CC(=CC=C1)NC2=NC(=CS2)C3=CC=NC=C3 + COc1cc2c(Oc3ccc(NC(=O)C4(C(=O)Nc5ccc(F)cc5)CC4)cc3F)ccnc2cc1OCCCN1CCOCC1 [Foretinib] (partner 0.25 µM)
Summary of the method: (§1)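 One day after seeding in 1536-well plates, lung cancer cell lines were dosed by pin tool. Dosing was either single-drug or a fixed anchor-drug dose plus five library-drug doses (not always all listed) in √10 steps. After 5 days, nuclei were stained in one fix-and-stain step and counted on 4× images, and relative viability is the nuclei count of treated wells over that of vehicle wells, given as the median of duplicate plates.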

Masitinib + Olaparib = compound: Cc1ccc(NC(=O)c2ccc(CN3CCN(C)CC3)cc2)cc1Nc1nc(-c2cccnc2)cs1 [Masitinib] + O=C(c1cc(Cc2n[nH]c(=O)c3ccccc23)ccc1F)N1CCN(C(=O)C2CC2)CC1 [Olaparib] (partner 8 µM)
Summary of the method: as §1

[2] = compound: CC1=CC(=CC=C1)NC2=NC(=CS2)C3=CC=NC=C3 + CS(=O)(=O)N1CCN(Cc2cc3nc(-c4cccc5[nH]ncc45)nc(N4CCOCC4)c3s2)CC1 [Pictilisib] (partner 1 µM)
Summary of the method: as §1

Masitinib + Tozasertib = compound: Cc1ccc(NC(=O)c2ccc(CN3CCN(C)CC3)cc2)cc1Nc1nc(-c2cccnc2)cs1 [Masitinib] + Cc1cc(Nc2cc(N3CCN(C)CC3)nc(Sc3ccc(NC(=O)C4CC4)cc3)n2)n[nH]1 [Tozasertib] (partner 0.1 µM)
Summary of the method: as §1

| Cell Line | relative viability ([1]; first compound 0.08 µM) | relative viability ([1]; first compound 0.253 µM) | relative viability ([1]; first compound 0.8 µM) | relative viability ([1]; first compound 2.53 µM) | relative viability ([1]; first compound 8 µM) | relative viability (Masitinib + Olaparib; first compound 0.01 µM) | relative viability (Masitinib + Olaparib; first compound 0.03162 µM) | relative viability (Masitinib + Olaparib; first compound 0.1 µM) | relative viability (Masitinib + Olaparib; first compound 0.3162 µM) | relative viability (Masitinib + Olaparib; first compound 1 µM) | relative viability ([2]; first compound 0.08 µM) | relative viability ([2]; first compound 0.253 µM) | relative viability ([2]; first compound 0.8 µM) | relative viability ([2]; first compound 2.53 µM) | relative viability ([2]; first compound 8 µM) | relative viability (Masitinib + Tozasertib; first compound 0.01 µM) | relative viability (Masitinib + Tozasertib; first compound 0.03162 µM) | relative viability (Masitinib + Tozasertib; first compound 0.1 µM) | relative viability (Masitinib + Tozasertib; first compound 0.3162 µM) | relative viability (Masitinib + Tozasertib; first compound 1 µM) |
| --- | --- | --- | --- | --- | --- | --- | --- | --- | --- | --- | --- | --- | --- | --- | --- | --- | --- | --- | --- | --- |
| Calu-6 | 0.712 | 0.795 | 0.727 | 0.768 | 0.768 | 0.53 | 0.656 | 0.63 | 0.563 | 0.547 | 0.796 | 0.718 | 0.659 | 0.815 | 0.803 | – | – | – | – | – |
| SW 1573 | 0.818 | 0.872 | 0.97 | 0.986 | 0.869 | 0.505 | 0.472 | 0.591 | 0.431 | 0.453 | 0.473 | 0.454 | 0.521 | 0.57 | 0.488 | 0.133 | 0.144 | 0.213 | 0.15 | 0.135 |
| RERF-LC-KJ | 0.847 | 0.874 | 0.718 | 0.78 | 0.762 | 0.935 | 0.916 | 0.978 | 0.672 | 0.852 | 0.509 | 0.49 | 0.541 | 0.472 | 0.497 | 0.558 | 0.41 | 0.492 | 0.465 | 0.336 |
| EMC-BAC-2 | 0.888 | 0.993 | 1 | 0.948 | 0.879 | 0.457 | 0.484 | 0.481 | 0.416 | 0.456 | 0.449 | 0.496 | 0.53 | 0.48 | 0.554 | 0.273 | 0.271 | 0.287 | 0.264 | 0.261 |
| LK-2 | – | 1.18 | 1.36 | – | 1.67 | 0.8 | 0.679 | 1.01 | 0.615 | 0.7 | 0.572 | 0.569 | 0.853 | – | 0.674 | 0.177 | 0.167 | 0.177 | 0.158 | 0.165 |
| NCI-H2228 | 0.705 | 0.955 | 0.766 | 0.893 | 0.892 | 0.756 | 0.589 | 0.622 | 0.548 | 0.661 | 0.413 | 0.431 | 0.281 | 0.453 | 0.359 | 0.242 | 0.199 | 0.232 | 0.217 | 0.221 |
| HCC-44 | – | – | – | – | – | 0.939 | 0.968 | 0.979 | 0.916 | 0.963 | 0.423 | 0.429 | 0.462 | 0.485 | 0.486 | 0.865 | 1.13 | 0.876 | 0.799 | 0.599 |
| NCI-H1299 | 1 | 1.06 | 0.993 | 1.01 | 0.897 | 0.936 | 0.988 | 0.993 | 1.06 | 0.846 | 0.779 | 0.839 | 0.779 | 0.88 | 0.899 | – | – | – | – | – |
| NCI-H1563 | 0.772 | 0.962 | 0.974 | 0.912 | 0.765 | – | – | – | – | – | 0.675 | 0.616 | 0.712 | 0.617 | 0.592 | – | – | – | – | – |
| NCI-H1703 | 0.293 | 0.347 | 0.367 | 0.374 | 0.375 | 0.308 | 0.267 | 0.231 | 0.174 | 0.277 | 0.229 | 0.243 | 0.238 | 0.282 | 0.262 | – | – | – | – | – |
| NCI-H1648 | – | – | – | – | – | 1.04 | 0.78 | 1.08 | – | 0.96 | – | – | – | – | – | 0.477 | – | 0.452 | 0.397 | 0.431 |
| NCI-H1792 | – | – | – | – | – | 0.528 | 0.257 | 0.303 | 0.377 | 0.396 | 0.155 | 0.198 | 0.219 | 0.162 | 0.24 | – | – | – | – | – |
| A549 | 0.882 | 0.914 | 0.871 | 0.866 | 0.802 | 0.363 | 0.184 | 0.338 | 0.301 | 0.325 | 0.399 | 0.472 | 0.524 | 0.525 | 0.418 | – | – | – | – | – |
| NCI-H522 | – | – | – | – | – | 0.609 | 0.766 | 0.66 | 0.534 | 0.619 | – | – | – | – | – | 0.589 | – | 0.631 | 0.615 | 0.582 |
| NCI-H1623 | 0.836 | 0.729 | 0.776 | 0.699 | 0.824 | – | – | – | – | – | – | – | – | – | – | 0.447 | 0.548 | 0.477 | 0.398 | 0.35 |
| SW 900 | 1.05 | 0.89 | 0.797 | 0.756 | 0.851 | 0.809 | 0.878 | 0.918 | 0.684 | 0.966 | – | – | – | – | – | 0.58 | 0.608 | 0.542 | 0.442 | 0.455 |
| IA-LM | 1.04 | 1.16 | 1.03 | 0.941 | 0.838 | 0.896 | 0.875 | 0.929 | 0.796 | 0.836 | 0.24 | 0.337 | 0.415 | 0.267 | 0.427 | – | – | – | – | – |
| EBC-1 | 0.0887 | 0.103 | 0.0911 | 0.117 | 0.114 | 0.679 | 0.673 | 0.814 | 0.713 | 0.615 | 0.187 | 0.216 | 0.236 | 0.303 | 0.211 | – | – | – | – | – |
